{"source": "patent US10889543B2", "about": "“Fine-tune modulators of neuronal excitability for neuropsychiatric disorders” (THE BOARD OF REGENTS OF THE UNIVERSITY OF TEXAS SYSTEM, priority 2016, dated 2021)", "key": {"[1]": {"tested_on": "nucleus accumbens medium spiny neurons", "assay": "Ex vivo whole-cell patch clamp of neuronal firing in brain tissue slices", "assay_type": "cell-based, mice", "excerpt": "It is known in the art that nucleus accumbens plays a critical role in reinforcement-associated learning and in addiction-related behavior. See e.g., Woodruff-Pak, D. S., et al., Behavioral neuroscience 120:229-240 (2006); McKinney, B. C., et al., Genes, brain, and behavior 7:629-638 (2008). It has been shown that Nav1.6 channels are expressed at the nucleus accumbens medium spiny neurons. Shah, B. S., et al., The Journal of Physiology 534(Pt 3):763-776 (2001). The effect of ZL0181 on neuronal firing along with active and passive properties was tested using whole-cell patch clamp techniques in brain tissue slices. Nucleus accumbens medium spiny neurons (MNS) were treated with either DMSO (0.05×) or ZL0181 (50 μM) for one hour in an incubation chamber before being transferred to submerge experimental chamber perfused with oxygenated artificial cerebrospinal fluid for patch clamp experiments. […] For instance, at current step of 150 pA the number of spikes in DMSO treated MSNs was 18.4±1.3, n=8 versus 6.9±2.3, n=10 in ZL0181 treated MSNs; p<0.005 with Student t-test (FIG. 4B, Chart C). To test the mechanisms underlying neuronal firing reduction and related to sodium channels activity, action potential voltage and current thresholds were measured.\nCoronal nucleus accumbens slices were prepared from FGF14−/− or wild type mice either treated with ZL0181 or vehicle control. Evoked action potentials were recorded in regular ASCF solution at 30-31° C. using Axopatch 200B and 700B amplifiers (Molecular Devices, Union City, Calif.). Recordings were filtered at 2 kHz and digitized at 10-20 kHz using a Digidata 1320 analog-to-digital interface and pClamp9 acquisition software (Molecular Devices, Union City, Calif.). Patch pipettes (4-6 MΩ) were prepared from borosilicate glass using a Narishige PC-10 vertical puller (Narishige International Inc., East Meadow, N.Y.). The extracellular bath solution contained (in mM) 130 NaCl, 3.5 KCl, 10 glucose, 1.5 MgCl2, 1.4 CaCl2, 23 NaHCO3, 1.25 NaH2PO4, osmolarity 300-310, pH 7.4, and the intracellular recording solution contained (in mM) 120 CH3KO3S, 10 KCl, 10 HEPES, 10 glucose, 2 MgCl2, 0.5 EGTA, 2 MgATP, and 0.5 NaGTP, osmolarity 280-290, pH 7.3. Upon forming a whole-cell connection, artificial cerebrospinal fluid containing 10 μM bicucilline (Tocris Bioscience), 30 μM NBQX (Tocris Bioscience), and 100 μM D-APV (Tocris Bioscience) was perfused into the bath solution in order to block synaptic transmission.\nAfter seal formation and membrane rupture, action potential trains were evoked with current step protocol injections of 10 pA increment."}, "[2]": {"molecular_target": "T1, FGF14:Nav1.6 complex (Homo sapiens, UniProt Q92915)", "T1 construct": "FGF14 and the C-tail of Nav1.6 channels are fused to vectors expressing CLuc and NLuc luciferase reporter; expressed in transfected cells; host or cells: HEK293, transient transfection", "T1 sequence (Q92915 1-252 isoform Q92915-2)": "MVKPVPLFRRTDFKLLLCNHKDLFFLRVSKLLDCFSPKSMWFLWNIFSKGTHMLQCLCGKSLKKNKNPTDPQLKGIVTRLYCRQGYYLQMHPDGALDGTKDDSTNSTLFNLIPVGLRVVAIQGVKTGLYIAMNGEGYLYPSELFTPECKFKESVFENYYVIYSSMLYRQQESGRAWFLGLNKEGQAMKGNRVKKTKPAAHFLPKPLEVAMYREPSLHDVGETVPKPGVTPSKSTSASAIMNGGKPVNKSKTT", "assay": "Split-luciferase complementation assay (LCA) in HEK293 cells expressing CLuc-FGF14 and CD4-Nav1.6-NLuc", "assay_type": "cell-based", "details": "50 μM, normalized to DMSO control", "protocol": "Detailed methods for LCA can be found is known in the art. See e.g., Shavkunov A. S., et al., Methods in Molecular Biology 1278:497-514 (2015). Statistical values were calculated as mean and standard error of the mean (mean±SEM), unless otherwise specified. The statistical significance (*p<0.05) of different groups was determined by Student's t-test, one-way ANOVA with post-hoc Bonferroni's method or Kruskal-Wallis one-way ANOVA on ranks with post-hoc Dunn's method using Sigma Stat (San Jose, Calif.) and Graph PrismR (La Jolla, Calif.) software. Dose-response modulation was determined by: y=START+(END−START)*x^n/(k^n+x^n) where k, Michaelis constant; n, cooperative sites; x, independent variable; y, dependable variable.\nTo monitor the role of compounds of the invention in the FGF14:Nav1.6 complex, certain embodiments of the invention were screened by split-luciferase complementation assay (LCA) where FGF14 and the C-tail of Nav1.6 channels are fused to vectors expressing CLuc and NLuc luciferase reporter. Compounds of the invention, as exemplified by, compounds ZL0141, ZL0148, ZL0181, and ZL0182 (see FIG. 1) were tested at 50 μM in HEK293 cells expressing CLuc-FGF14 and CD4:Nav1.6-NLuc. […] None of the tested compounds interfered with the full-length luciferase enzyme (FIG. 2B, Chart C). Dose-response studies were then performed with compounds ZL0148, ZL0181, and ZL0182 against the FGF14:Nav1.6 complex."}, "[3]": {"molecular_target": "T2, Nav1.2 channels (Homo sapiens, UniProt Q99250)", "T2 construct": "expressed in transfected cells", "T2 sequence (Q99250 whole entry)": "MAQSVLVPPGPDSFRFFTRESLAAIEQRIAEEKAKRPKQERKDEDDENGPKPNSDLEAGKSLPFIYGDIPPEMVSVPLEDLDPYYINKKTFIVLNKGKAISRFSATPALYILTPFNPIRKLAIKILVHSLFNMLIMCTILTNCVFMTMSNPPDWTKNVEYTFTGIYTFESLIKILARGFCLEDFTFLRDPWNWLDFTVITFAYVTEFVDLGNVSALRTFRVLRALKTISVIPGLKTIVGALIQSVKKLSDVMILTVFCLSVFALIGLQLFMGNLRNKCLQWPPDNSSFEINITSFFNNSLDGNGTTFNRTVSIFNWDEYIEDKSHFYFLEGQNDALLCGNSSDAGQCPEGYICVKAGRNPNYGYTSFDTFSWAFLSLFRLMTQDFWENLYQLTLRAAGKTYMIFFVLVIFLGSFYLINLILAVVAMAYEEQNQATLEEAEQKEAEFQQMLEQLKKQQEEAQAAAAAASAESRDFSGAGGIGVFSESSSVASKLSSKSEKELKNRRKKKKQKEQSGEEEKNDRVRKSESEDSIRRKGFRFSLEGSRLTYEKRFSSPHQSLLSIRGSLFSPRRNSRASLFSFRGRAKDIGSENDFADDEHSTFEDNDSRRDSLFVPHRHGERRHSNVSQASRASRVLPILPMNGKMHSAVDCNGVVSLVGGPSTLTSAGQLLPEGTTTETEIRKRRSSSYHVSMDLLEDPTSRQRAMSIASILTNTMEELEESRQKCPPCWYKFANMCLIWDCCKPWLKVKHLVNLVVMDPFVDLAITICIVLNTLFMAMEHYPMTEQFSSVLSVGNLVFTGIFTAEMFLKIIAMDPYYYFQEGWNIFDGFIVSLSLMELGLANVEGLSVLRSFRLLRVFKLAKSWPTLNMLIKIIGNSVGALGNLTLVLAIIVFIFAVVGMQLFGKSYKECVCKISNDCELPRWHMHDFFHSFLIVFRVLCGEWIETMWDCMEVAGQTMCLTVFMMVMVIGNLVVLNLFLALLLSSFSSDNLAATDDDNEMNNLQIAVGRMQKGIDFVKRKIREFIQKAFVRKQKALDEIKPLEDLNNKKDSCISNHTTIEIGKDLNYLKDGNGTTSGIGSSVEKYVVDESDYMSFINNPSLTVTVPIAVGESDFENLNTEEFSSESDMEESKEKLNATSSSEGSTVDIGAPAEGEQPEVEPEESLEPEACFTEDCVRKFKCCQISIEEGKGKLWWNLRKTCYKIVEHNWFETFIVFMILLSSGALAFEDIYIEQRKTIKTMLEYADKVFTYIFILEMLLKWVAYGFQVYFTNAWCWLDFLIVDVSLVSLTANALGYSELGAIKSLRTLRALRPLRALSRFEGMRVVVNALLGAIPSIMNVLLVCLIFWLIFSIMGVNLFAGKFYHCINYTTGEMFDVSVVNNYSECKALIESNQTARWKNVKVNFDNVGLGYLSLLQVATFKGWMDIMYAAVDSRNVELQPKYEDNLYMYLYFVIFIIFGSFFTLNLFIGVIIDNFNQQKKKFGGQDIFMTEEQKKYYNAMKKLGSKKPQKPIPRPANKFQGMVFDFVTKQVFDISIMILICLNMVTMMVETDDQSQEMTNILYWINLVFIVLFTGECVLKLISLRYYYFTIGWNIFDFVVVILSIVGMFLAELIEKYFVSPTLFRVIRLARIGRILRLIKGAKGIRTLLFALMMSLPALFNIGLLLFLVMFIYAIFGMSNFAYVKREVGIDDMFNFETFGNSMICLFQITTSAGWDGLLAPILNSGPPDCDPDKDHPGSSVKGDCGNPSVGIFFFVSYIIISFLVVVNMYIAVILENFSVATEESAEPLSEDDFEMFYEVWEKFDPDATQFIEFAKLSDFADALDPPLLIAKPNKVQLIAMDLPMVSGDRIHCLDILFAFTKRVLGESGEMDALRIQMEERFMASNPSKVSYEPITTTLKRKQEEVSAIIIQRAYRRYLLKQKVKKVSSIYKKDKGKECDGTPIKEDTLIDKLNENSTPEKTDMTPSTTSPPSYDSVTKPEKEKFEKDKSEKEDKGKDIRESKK", "assay": "Patch clamp of Na+ currents in Nav1.2 channels", "assay_type": "cell-based", "protocol": "The role of ZL0181 in regulating Nav1.1 and Nav1.2 channels was also investigated.\nHEK-Nav1.1, […] HEK-Nav1.6 were maintained in medium composed of equal volumes of DMEM and F-12 (Invitrogen) supplemented with 0.05% glucose, 0.5 mm pyruvate, 10% fetal bovine serum, 100 units/ml penicillin, 100 μg/ml streptomycin incubated at 37° C. with 5% CO2. For selection of Nav1.1 and Nav1.2, 500 μg/ml G418 (Invitrogen) was used, and for selection of Nav1.6, 80 μg/ml G418 (Invitrogen) was used. Cells were transfected according to manufacturer's instructions at 90-100% confluency using Lipofectamine 2000 (Invitrogen). See e.g., Shavkunov, A., et al. Assay and drug development technologies 10(2):148-160 (2012).\nDetailed methods for path-clamp experiments is known in the art. See e.g., Ali, S. R., et al., Journal of Biological Chemistry 291:11268 (2016)."}}, "note": "Residues, ends and D or L forms follow the SMILES beside them. *: point of attachment. Cbz = O=C(OCc1ccccc1)*; Boc = CC(C)(C)OC(=O)*", "data": [{"smiles": "CC(C)C[C@H](NC(=O)[C@H](Cc1ccccc1)NC(=O)OCc1ccccc1)C(=O)N1CCC[C@H]1C(=O)N[C@@H](CCCCNC(=O)OC(C)(C)C)C(N)=O", "note": "[ZL0181, Z-Phe-Leu-Pro-Lys(Boc)-NH2] (Cbz-FLPK(Boc)-NH2)", "values": [{"measurement": "number of spikes", "setting": "[1]; 50 μM for one hour, current step of 150 pA, n=10, DMSO 18.4±1.3", "result": "6.9±2.3"}, {"measurement": "action potential current threshold", "setting": "[1]; 50 μM for one hour, n=10, DMSO 72.5±11.5", "result": "135.8±12.5", "unit": "pA"}, {"measurement": "action potential voltage threshold", "setting": "[1]; 50 μM for one hour, n=10, DMSO −35.9±2.3", "result": "−27.8±2", "unit": "mV"}, {"measurement": "further neuronal active and passive properties", "setting": "[1]; 50 μM, compared to DMSO control", "result": "no significant changes"}, {"measurement": "luminescence response compared to control (DMSO)", "setting": "[2]", "result": "75±6", "unit": "%"}, {"measurement": "peak current amplitude in Nav1.2 channels", "setting": "[3]", "result": "suppresses peak current amplitude"}, {"measurement": "synergy with FGF14 on Na+ current and rescue of V1/2 of inactivation, Nav1.2", "setting": "[3]; in presence of FGF14", "result": "does neither act synergistically to further suppress Na+ current in presence of FGF14 or rescue the voltage-dependence inactivation property"}]}]}
